Measurements: patent publication US20260021061A1, “ARIADNE AND ANALOGS FOR THE TREATMENT OF NEUROLOGICAL AND NEUROMUSCLAR DISORDERS” (priority 2022, published 2026)
Read-outs that look alike come from different tables or passages of the source.

Legend:
[1] = target: T1, 5-HT2A (Homo sapiens, UniProt P28223); assay: IP1 agonism (IP1 formation assay), Cerep, Eurofins; assay type: cell-based; parameters: purchased Cerep, Eurofins (contract assay); settings: duplicate averages only
Excerpt: (§1) FIGS. 8A-B Comparison of 5-HT2A (a) and 5-HT2B (b) receptor in IP1 formation assay for selected compounds, performed at Cerep, Eurofins.
(§2) IP1 agonism summary for selected compounds (duplicate averages only), performed at Cerep, Eurofins.

[2] = target: 5-HT2B (Homo sapiens, UniProt P41595); assay: IP1 agonism (IP1 formation assay), Cerep, Eurofins; assay type: cell-based; parameters: purchased Cerep, Eurofins (contract assay); settings: duplicate averages only
5-HT2B, sequence (P41595 whole entry): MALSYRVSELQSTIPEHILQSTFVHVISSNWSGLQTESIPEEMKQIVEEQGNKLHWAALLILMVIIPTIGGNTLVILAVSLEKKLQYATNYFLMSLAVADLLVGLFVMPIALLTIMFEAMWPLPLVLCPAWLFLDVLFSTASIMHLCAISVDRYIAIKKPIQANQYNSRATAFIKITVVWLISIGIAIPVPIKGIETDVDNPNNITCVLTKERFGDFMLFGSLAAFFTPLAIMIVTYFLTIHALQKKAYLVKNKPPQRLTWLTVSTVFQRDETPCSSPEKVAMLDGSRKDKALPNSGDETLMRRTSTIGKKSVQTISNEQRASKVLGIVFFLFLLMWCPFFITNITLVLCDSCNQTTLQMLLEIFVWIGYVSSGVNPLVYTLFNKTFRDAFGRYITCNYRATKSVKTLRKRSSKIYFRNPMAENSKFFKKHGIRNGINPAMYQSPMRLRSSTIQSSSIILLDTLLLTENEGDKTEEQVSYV
Excerpt: as §1, §2

[3] = test system: C57BL/6J mice; assay: Head twitch response (HTR) in mice; assay type: in vivo, mouse; settings: for HTR in presence of MDL100,907 (volinanserin), 5-HT2A antagonist: mouse, in vivo
Description: All samples were prepared the same day testing was performed. Solids were weighed into small vials and dissolved in USP grade 0.85% saline with addition of 2 molar equivalents of glacial acetic acid. Sonication and gentle heating were applied until complete dissolution. The compounds were subsequently filtered through 0.45 μm filters into a new glass vial. All compounds were administered at a 1 mg/kg subcutaneous dose at a volume of 10 mL/kg of body weight. Volinanserin hydrochloride salt (MDL 100907) was purchased from Toronto Research Chemicals.
All experimental procedures involving animals were approved by an Institutional Animal Care and Use Committee (IACUC) and adhered to principles described in the National Institutes of Health Guide for the Care and Use of Laboratory Animals. The studies were conducted at AAALAC accredited facilities. Animals received regular veterinary care (weekly by institutional veterinarians) including daily health monitoring (by experimenters) of the animals (observing home cage behaviors, nesting, and body weight). All procedures were designed to minimize any stress/distress. Healthy adult male mice C57BL/6J (8-12 weeks, 26-33 g) were purchased from the Jackson Laboratory (Bar Harbor, ME) and housed 5 mice per cage with food and water available ad libitum. Mice were maintained on a 12-h light/dark cycle (lights on 7:00-19:00) and all testing was done in the light cycle. Temperature was kept constant at 22±2° C., and relative humidity was maintained at 50±5%
The head-twitch response evaluation was performed by a trained observer who was blinded to both drug and dose. Mice were moved to the testing room 30 min before the experiment to allow for acclimation. The body weight of each mouse was recorded. Mice were administered either a 1, 3, 10, or 30 mg/kg s.c. dose of compound solution (volume of injection 260-330 μL based on body weight). […] The total number of head-twitches over the 15 minute period were recorded. Five mice were used per dose.
DOI was tested at the doses of 0.3, 1, 3, and 10 mg/kg (s.c., 5 mice per dose) and testing began immediately after administration of the compound. Ariadne was tested at the doses of 1, 3, 10, and 30 mg/kg (s.c., 5 mice per dose) and there was a 10 min interval between treatment and testing.

[4] = Pharmacokinetic assessment, plasma and brain; assay type: in vivo, male C57BL/6 mice; settings: for Mean brain Concentration (ng/g): LLOQ 2.06 ng/mL for brain; for AUC(0-t): read-out: AUClast (hr*ng/mL), plasma
Description: PK assessments were performed at Sai Life (Telangana, India) according to the following general procedure. A total twenty-seven male C57BL/6 mice were used in this study with 3 mice per time point. Animals were administered subcutaneously at 10 mg/kg dose of test article. The formulation vehicle used was 0.9% normal saline. Blood samples (approximately 60 μL) were collected under light isoflurane anesthesia (Surgivet®) from retro orbital plexus from a set of three mice at 0.08, 0.25, 0.5, 1, 2, 4, 8, 24 and 48 hr. Immediately after blood collection, plasma was harvested by centrifugation at 4000 rpm, 10 min at […] and samples were stored at −70±10° C. until bioanalysis. Following blood collection, immediately animals were sacrificed followed by cutting abdominal vena-cava and whole body was perfused from heart using 10 mL of normal saline. Brain samples were collected from set of three mice at 0.08, 0.25, 0.5, 1, 2, 4, 8, 24 and 48 hr. After isolation, brain samples were rinsed three times in ice cold normal saline (for 5-10 seconds/rinse using ˜5-10 mL normal saline in disposable petri dish for each rinse) and dried on blotting paper. Brain samples were homogenized using ice-cold phosphate buffer saline (pH−7.4). Total homogenate volume was three times the tissue weight. All homogenates were stored below −70±10° C. until bioanalysis. All samples were processed for analysis by protein precipitation method and analyzed with fit-for-purpose LC-MS/MS method (LLOQ=5.16 ng/mL for plasma and 2.06 ng/mL for brain).

[5] = target: T1, 5-HT2A; assay: G protein (Gq) dissociation BRET assay; assay type: cell-based; parameters: host or cells: HEK293T (ATCC CRL-11268)
[6] = target: T1, 5-HT2A; assay: Radioligand displacement assay; assay type: binding
Description: Therefore, an orthogonal assay measuring calcium flux was also performed for the 5-HT2 receptors (Klein et al., 2020).

[7] = target: 5-HT4 receptor (Homo sapiens, UniProt Q13639); assay: 5-HTome G protein activation BRET assay; settings: 5-HTome screen
5-HT4 receptor, sequence (Q13639 whole entry): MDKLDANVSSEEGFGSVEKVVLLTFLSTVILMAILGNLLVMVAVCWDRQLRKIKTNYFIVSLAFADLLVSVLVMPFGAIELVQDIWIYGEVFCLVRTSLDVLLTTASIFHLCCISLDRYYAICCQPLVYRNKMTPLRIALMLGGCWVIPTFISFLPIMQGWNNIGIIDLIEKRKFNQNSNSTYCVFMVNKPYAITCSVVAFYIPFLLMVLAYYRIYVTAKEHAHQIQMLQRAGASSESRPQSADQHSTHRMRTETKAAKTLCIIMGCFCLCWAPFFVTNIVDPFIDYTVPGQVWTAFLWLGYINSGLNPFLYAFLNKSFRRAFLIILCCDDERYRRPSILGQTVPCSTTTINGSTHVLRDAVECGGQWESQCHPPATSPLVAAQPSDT
Description: (§3) All BRET assays were conducted using BRET2 in HEK293T cells (ATCC CRL-11268; mycoplasma-free), which were subcultured in high-glucose DMEM (VWR) supplemented with 10% FBS (Life Technologies).
Constructs in G protein-dissociation BRET assays were derived from the codon-optimized Tango pcDNA3.1 library (Addgene) with V2tail/TEV/tTA encoding regions deleted to yield “de-Tango” constructs. […] All Gα-Rluc8, Beta, and GFP2-γ constructs were derived from the TRUPATH pcDNA5/FRT/TO library (Addgene). […]
On the day of the assay, plates were decanted and 20 uL of drug buffer per well (1×HBSS, 20 mM HEPES, pH 7.4) was added using a Multidrop (ThermoFisher Scientific), and plates were allowed to equilibrate at 37° C. in a humidified incubator before receiving drug stimulation. […] Before reading, addition of coelenterazine 400a (5 uM final concentration; Nanolight Technology) was performed by the [sequence]. Immediately after, plates were read at 400 nm Rluc and fluorescent GFP2 emission at 510 nm for BRET2 at 0.8 second per well using a PheraStarFSX (BMB Lab Tech).
The BRET ratios of 510/400 luminescence were calculated per well and were plotted as a function of drug concentration using Graphpad Prism 5 or 9 (Graphpad Software Inc., San Diego, CA). […]

[8] = target: 5-HT1E receptor (Homo sapiens, UniProt P28566); assay: 5-HTome G protein activation BRET assay
5-HT1E receptor, sequence (P28566 whole entry): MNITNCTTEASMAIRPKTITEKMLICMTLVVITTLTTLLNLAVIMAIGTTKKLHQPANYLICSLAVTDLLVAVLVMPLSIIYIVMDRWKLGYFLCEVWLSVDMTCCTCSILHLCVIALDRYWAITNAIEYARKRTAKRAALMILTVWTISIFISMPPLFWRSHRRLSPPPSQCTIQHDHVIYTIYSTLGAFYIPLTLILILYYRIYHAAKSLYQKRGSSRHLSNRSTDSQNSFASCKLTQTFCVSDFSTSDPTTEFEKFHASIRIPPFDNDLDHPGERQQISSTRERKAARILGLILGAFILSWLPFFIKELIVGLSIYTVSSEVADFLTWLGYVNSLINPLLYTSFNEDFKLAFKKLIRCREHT
Description: as §3
(§4) Constructs in G protein-dissociation BRET assays were derived from the codon-optimized Tango pcDNA3.1 library (Addgene) with V2tail/TEV/tTA encoding regions deleted to yield “de-Tango” constructs. […] All Gα-Rluc8, Beta, and GFP2-γ constructs were derived from the TRUPATH pcDNA5/FRT/TO library (Addgene).
(§5) Approximately 48 hours before assays, cells were transfected using a reverse transfection method and plated in 1% dFBS at an approximate density of 15,000 cells per well into poly-L-lysine-coated 384-well white assay plates (Grenier Bio-One). For G protein-dissociation assays, cells were transfected in a 1:1:1:1 ratio of receptor: Gα-Rluc8: Beta: GFP2-γ constructs. […] All transfections were prepared in Opti-MEM (Invitrogen) and used a 3:1 ratio of TransIT-2020 (Mirus) uL:ug total DNA.
(§6) On the day of the assay, plates were decanted and 20 uL of drug buffer per well (1×HBSS, 20 mM HEPES, pH 7.4) was added using a Multidrop (ThermoFisher Scientific), and plates were allowed to equilibrate at 37° C. in a humidified incubator before receiving drug stimulation. Drug dilutions of all compounds were performed in McCorvy buffer (1×HBSS, 20 mM HEPES, pH 7.4, supplemented with 0.3% BSA fatty acid free (GoldBio), and 0.03% ascorbic acid). […] Before reading, addition of coelenterazine 400a (5 uM final concentration; Nanolight Technology) was performed by the [sequence]. Immediately after, plates were read at 400 nm Rluc and fluorescent GFP2 emission at 510 nm for BRET2 at 0.8 second per well using a PheraStarFSX (BMB Lab Tech).
(§7) The BRET ratios of 510/400 luminescence were calculated per well and were plotted as a function of drug concentration using Graphpad Prism 5 or 9 (Graphpad Software Inc., San Diego, CA). Data were normalized to % positive control stimulation and analyzed using nonlinear regression “log(agonist) vs. response” to yield Emax and EC50 parameter estimates.

[9] = target: 5-HT6 receptor (Homo sapiens, UniProt P50406); assay: 5-HTome G protein activation BRET assay; settings: for agonist activity: 5-HTome screen
5-HT6 receptor, sequence (P50406 whole entry): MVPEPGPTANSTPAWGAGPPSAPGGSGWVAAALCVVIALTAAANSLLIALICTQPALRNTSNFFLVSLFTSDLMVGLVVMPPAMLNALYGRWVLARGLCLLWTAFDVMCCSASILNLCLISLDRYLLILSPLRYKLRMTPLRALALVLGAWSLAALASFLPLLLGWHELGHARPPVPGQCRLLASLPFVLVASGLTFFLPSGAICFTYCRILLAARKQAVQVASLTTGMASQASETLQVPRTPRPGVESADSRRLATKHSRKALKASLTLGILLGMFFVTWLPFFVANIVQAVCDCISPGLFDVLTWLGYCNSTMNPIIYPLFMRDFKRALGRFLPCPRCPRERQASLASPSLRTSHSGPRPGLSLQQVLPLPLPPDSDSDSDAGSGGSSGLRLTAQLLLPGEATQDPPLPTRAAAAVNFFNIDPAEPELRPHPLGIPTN
Description: as §3, §4, §5, §6, §7

[10] = EC50 (5-HT2A) (M), Table 7, IP1 agonism
[11] = EC50 (5-HT2B) (M), Table 7, IP1 agonism
[12] = SC 10 mg/kg, 24 hr, LLOQ 5.16 ng/mL
[13] = SC 10 mg/kg, 48 hr, LLOQ 5.16 ng/mL
[14] = male, C57BL/6, mouse, brain and plasma, SC 10 mg/kg, read-out: Brain/Plasma ratio
[15] = male, C57BL/6, mouse, brain, SC 10 mg/kg, read-out: Mean brain Concentration
[16] = male, C57BL/6, mouse, brain, SC 10 mg/kg, 8 hr, read-out: Mean brain Concentration
[17] = male, C57BL/6, mouse, plasma, SC 10 mg/kg, read-out: Mean plasma Concentration
[18] = male, C57BL/6, mouse, SC 10 mg/kg, brain, read-out: Cmax (ng/g), brain
[19] = male, C57BL/6, mouse, SC 10 mg/kg, brain, read-out: T1/2 (hr), brain (converted)
[20] = male, C57BL/6, mouse, SC 10 mg/kg, brain, read-out: Tmax (hr), brain
[21] = male, C57BL/6, mouse, SC 10 mg/kg, plasma
[22] = male, C57BL/6, mouse, SC 10 mg/kg, plasma, read-out: Cmax (ng/mL), plasma
[23] = male, C57BL/6, mouse, SC 10 mg/kg, plasma, read-out: T1/2 (hr), plasma (converted)
[24] = male, C57BL/6, mouse, SC 10 mg/kg, plasma, read-out: Tmax (hr), plasma
[25] = 5-HTome screen, read-out: Emax, agonist activity
[26] = EC50 (EC50/Gq), Gq dissociation, Gq dissociation BRET
[27] = EC50, agonist activity, 5-HTome screen

T1 sequence (P28223 whole entry): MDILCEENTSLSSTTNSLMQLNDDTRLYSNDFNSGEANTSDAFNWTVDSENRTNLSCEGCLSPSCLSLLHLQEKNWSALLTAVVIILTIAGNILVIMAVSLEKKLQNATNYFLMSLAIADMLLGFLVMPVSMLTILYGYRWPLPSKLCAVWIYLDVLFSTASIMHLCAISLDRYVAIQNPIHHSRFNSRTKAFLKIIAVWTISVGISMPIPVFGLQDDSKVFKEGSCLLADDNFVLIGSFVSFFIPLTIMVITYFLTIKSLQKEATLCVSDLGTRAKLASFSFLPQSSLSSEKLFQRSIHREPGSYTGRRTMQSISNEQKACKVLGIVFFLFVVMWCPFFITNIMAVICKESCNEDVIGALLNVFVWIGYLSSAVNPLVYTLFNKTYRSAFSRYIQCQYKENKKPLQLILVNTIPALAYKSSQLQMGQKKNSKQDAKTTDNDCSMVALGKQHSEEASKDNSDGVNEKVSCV

`CCC(N)Cc1cc(OC)c(C(F)(F)F)cc1OC` (racemic) [Compound 29, 1-(2,5-dimethoxy-4-(trifluoromethyl)phenyl)butan-2-amine] showed an EC50 ([1]; 5-HT2a (IP1 agonism), Table 2) of 5e-08 M, an EC50 [1, 10] of 6.3e-08 M and an EC50 ([2]; 5-HT2b (IP1 agonism), Table 2) of 6.3e-07 M. The EC50 [2, 11] was 4e-07 M, the “HTR in presence of MDL100,907 (volinanserin), 5-HT2A antagonist” value [3] was “completely inhibited” and the “Mean brain Concentration (ng/g)” value ([4]; SC 10 mg/kg, 24 hr) was “BLQ”. For the same compound, the “Mean plasma Concentration (ng/mL)” value [4, 12] was “BLQ”, the “Mean brain Concentration (ng/g)” value ([4]; SC 10 mg/kg, 48 hr) was “BLQ” and the “Mean plasma Concentration (ng/mL)” value [4, 13] was “BLQ”. It also gave a Kp at 0.083 h [4, 14] of 4.66, a Kp at 0.25 h [4, 14] of 8.91 and a Kp at 0.5 h [4, 14] of 8.93. For the same compound, the Kp at 1 h [4, 14] was 18.1, the Kp at 2 h [4, 14] was 18.2 and the Kp at 4 h [4, 14] was 15.2. For the same compound, the Kp at 8 h ([4]; male, C57BL/6, mouse, brain and plasma, SC 10 mg/kg, 8 hr, read-out: Brain/Plasma ratio) was 12.7, the concentration at 0.083 hr [4, 15] was 2010 ng/g and the concentration at 0.25 hr [4, 15] was 4160 ng/g. It also gave a concentration at 0.5 hr [4, 15] of 3770 ng/g, a concentration at 1 hr [4, 15] of 3900 ng/g and a concentration at 2 hr [4, 15] of 1740 ng/g. The concentration at 4 hr [4, 15] was 787 ng/g, the concentration at 8 hr [4, 16] was 170 ng/g and the concentration at 0.083 hr [4, 17] was 431 ng/mL. It also gave a concentration at 0.25 hr [4, 17] of 467 ng/mL, a concentration at 0.5 hr [4, 17] of 422 ng/mL and a concentration at 1 hr [4, 17] of 216 ng/mL. It also gave a concentration at 2 hr [4, 17] of 95.5 ng/mL, a concentration at 4 hr [4, 17] of 51.9 ng/mL and a concentration at 8 hr ([4]; male, C57BL/6, mouse, plasma, SC 10 mg/kg, 8 hr, LLOQ 5.16 ng/mL, read-out: Mean plasma Concentration) of 13.4 ng/mL. For the same compound, the Cmax [4, 18] was 4160 ng/g, the half-life [4, 19] was 1.79 h and the Tmax [4, 20] was 0.25 h. For the same compound, the AUC(0-t) [4, 21] was 798 ng·h/mL, the Cmax [4, 22] was 467 ng/mL and the half-life [4, 23] was 2.11 h. For the same compound, the Tmax [4, 24] was 0.25 h and the “selectivity for 5-HT2A over 5-HT2B” value ([5]; by Gq dissociation signaling potency) was 8 fold.

With `CCC(N)Cc1cc(OC)c(C)cc1OC` (racemic) [Compound 32, 1-(2,5-dimethoxy-4-methylphenyl)butan-2-amine] the EC50 ([1]; 5-HT2a (IP1 agonism), Table 2) was 1.3e-06 M, the EC50 [1, 10] was 1.8e-06 M and the EC50 ([2]; 5-HT2b (IP1 agonism), Table 2) was over 3.2e-05 M. The EC50 [2, 11] was 1.7e-06 M, the “decrease in HTR count per 15 min compared to racemic DOPR” value ([3]; s.c.) was over 3 fold and the “dose of maximum (peak) HTR” value ([3]; s.c.) was 10 mg/kg. For the same compound, the Ki [6] was 120 nM, the agonist activity [7] was “Little to no agonist activity” and the “Mean plasma Concentration (ng/mL)” value ([4]; SC 10 mg/kg, 8 hr, LLOQ 5.16 ng/mL) was “BLQ”. For the same compound, the “Mean brain Concentration (ng/g)” value ([4]; SC 10 mg/kg, 24 hr) was “BLQ”, the “Mean plasma Concentration (ng/mL)” value [4, 12] was “BLQ” and the “Mean brain Concentration (ng/g)” value ([4]; SC 10 mg/kg, 48 hr) was “BLQ”. For the same compound, the “Mean plasma Concentration (ng/mL)” value [4, 13] was “BLQ”, the Kp at 0.083 h [4, 14] was 2.43 and the Kp at 0.25 h [4, 14] was 5.93. It also gave a Kp at 0.5 h [4, 14] of 8.47, a Kp at 1 h [4, 14] of 10.2 and a Kp at 2 h [4, 14] of 9.93. The Kp at 4 h [4, 14] was 9.01, the concentration at 0.083 hr [4, 15] was 1630 ng/g and the concentration at 0.25 hr [4, 15] was 4760 ng/g. It also gave a concentration at 0.5 hr [4, 15] of 5610 ng/g, a concentration at 1 hr [4, 15] of 5240 ng/g and a concentration at 2 hr [4, 15] of 1710 ng/g. It also gave a concentration at 4 hr [4, 15] of 368 ng/g, a concentration at 8 hr [4, 16] of 16.2 ng/g and a concentration at 0.083 hr [4, 17] of 672 ng/mL. The concentration at 0.25 hr [4, 17] was 802 ng/mL, the concentration at 0.5 hr [4, 17] was 662 ng/mL and the concentration at 1 hr [4, 17] was 512 ng/mL. It also gave a concentration at 2 hr [4, 17] of 172 ng/mL, a concentration at 4 hr [4, 17] of 40.9 ng/mL and a Cmax [4, 18] of 5610 ng/g. It also gave a half-life [4, 19] of 0.89 h, a Tmax [4, 20] of 0.5 h and an AUC(0-t) [4, 21] of 1180 ng·h/mL. The Cmax [4, 22] was 802 ng/mL, the half-life [4, 23] was 0.84 h and the Tmax [4, 24] was 0.25 h. For the same compound, the brain penetration ([4]; mouse, in vivo) was “high brain penetration”, the “selectivity of 5-HT2 over 5-HT1E and 5-HT1F receptors” value ([8]; also 5-HT1F) was 0.5-1 log and the Emax [5, 25] was over 70%. The EC50 [5, 26] was 185 nM, the EC50 [5, 27] was under 1000 nM and the “signaling potency and efficacy in comparison to DOM” value ([5]; Gq, G11 and β-arrestin2 pathways coupled to 5-HT2A) was “lower signaling potency and efficacy”. The EC50 [9] was over 10000 nM and the agonist activity [9] was “Little to no agonist activity”.

With `CC[C@@H](N)Cc1cc(OC)c(C)cc1OC` [(R)-Ariadne] the “HTR in presence of MDL100,907 (volinanserin), 5-HT2A antagonist” value [3] was “completely inhibited”, the “dose of maximum (peak) HTR” value ([3]; s.c.) was 10 mg/kg and the Ki [6] was 53 nM. The agonist activity [7] was “Little to no agonist activity”, the EC50 [8] was about 200 nM and the Emax [8] was over 70%. The Emax [5, 25] was over 70%, the EC50 [5, 26] was 149 nM and the EC50 [5, 27] was under 1000 nM. The Emax ([5]; Gq dissociation BRET, normalized to 5-HT, read-out: Emax (Emax/Gq) relative to 5-HT) was 75% and the agonist activity [9] was “Little to no agonist activity”.
